pIC50: −log10 of the molar value.
Columns and labels:
human PHD2 [1] = target: T1, human PHD2 (Homo sapiens (Human), UniProt Q9GZT9); assay: Test 2: human PHD2 inhibitory activity, fluorescence polarization assay of HIF-1α peptide proline hydroxylation; assay type: biochemical; conditions: for inhibition at 1 µM: test compound's concentration 1 μM, Test 2, fluorescence polarization assay, read-out: Percent inhibition (% at 1 μM)
Method in brief: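 A 19-mer HIF-1α peptide served as substrate, with the reaction started by 40 ng/well human PHD2 (cell lysate of NM_022051-transfected cells) and run 20 min at 30° C. before EDTA stop. Hydroxylated product bound anti-HIF-OH antibody, read by fluorescence polarization versus no-compound control.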

human PHD2 [2] = target: T1, human PHD2; assay: Test 1: human PHD2 inhibitory activity, [14C]-2-oxoglutarate to [14C]-succinic acid radiometric assay with HIF-1α peptide; assay type: biochemical; conditions: test compound's concentration 1 μM; Test 1, [14C]-2-oxoglutarate radiometric assay; read-out: Percent inhibition (% at 1 μM)
Protocol: (1) Expression and Preparation of Human PHD2
Human PHD2 was expressed in insect cells (HighFive cells). A registered sequence of human PHD2 (NM_022051) was introduced into the pFastBacl vector (Invitrogen), and the sequence was verified. The vector was introduced into Sf9 insect cells (Invitrogen) to acquire human PHD2 baculovirus. HighFive insect cells (Invitrogen) were infected with this recombinant virus and cultured at 27° C. for 72 hours; thereafter, a cell lysis solution containing various protease inhibitors was added and the cells were disrupted to form a suspension. The suspension of disrupted cells was centrifuged at 4° C. and 100,000×g for 30 minutes and the supernatant was recovered as a cell lysate.
(2) Measurement of Human PHD2 Inhibitory Activity
The activity of human PHD2 enzyme was measured with a substrate which is a 19-residue partial peptide based on the sequence of HIF-1α. Specifically, the conversion of 2-oxoglutarate to succinic acid which would occur simultaneously with the hydroxylation of a proline residue in the peptide with the PHD2 enzyme was utilized. To be more specific, [^14C]-2-oxogiutarate was added to the reaction system to initiate an enzymatic reaction and the [^14C]-2-oxoglutarate remaining after the reaction was bound to 2,4-dinitrophenylhydrazine (DNPH), with the resulting precipitate being removed by passage through a filter. Subsequently, radiation counting was conducted on the resulting [^14C]-succinic acid.
A test compound, HIF-1αpeptide and [^14C]-2-oxoglutarate were preliminarily added onto 96-well plates and reaction was initiated by adding a human PHD2 enzyme solution (4 μg/well). After 15-min incubation at 37° C., a DNPH-containing quench solution was added and the mixture was allowed to stand at room temperature for 30 minutes. Thereafter, an excess of non-radiolabelled 2-oxoglutarate was added and the mixture was allowed to stand at room temperature for 60 minutes. The resulting precipitate was removed by passage through a filter and the radiation count on the [^14C]-succinic acid was quantified (with MicroBeta). Radiation counting was conducted for each well and the human PHD2 inhibitory activity of each test compound was calculated on the basis of the values for the substrate-free group and the test compound-free group.

T1 sequence (Q9GZT9 whole entry): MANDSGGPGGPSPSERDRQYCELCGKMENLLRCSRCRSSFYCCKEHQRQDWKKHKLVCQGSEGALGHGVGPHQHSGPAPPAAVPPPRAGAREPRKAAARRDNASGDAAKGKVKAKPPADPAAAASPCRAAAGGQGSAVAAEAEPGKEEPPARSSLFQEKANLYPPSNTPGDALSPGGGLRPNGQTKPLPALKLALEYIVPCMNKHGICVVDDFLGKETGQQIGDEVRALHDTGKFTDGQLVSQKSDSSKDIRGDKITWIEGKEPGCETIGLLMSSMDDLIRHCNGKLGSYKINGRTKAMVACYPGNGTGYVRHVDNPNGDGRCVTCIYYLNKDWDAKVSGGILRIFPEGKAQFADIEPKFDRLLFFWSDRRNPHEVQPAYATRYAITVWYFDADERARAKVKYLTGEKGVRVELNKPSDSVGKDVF

Structure (SMILES)	inhibition at 1 µM (human PHD2 [1]) [%]	inhibition at 1 µM (human PHD2 [2]) [%]	pIC50 (human PHD2 [1]; human PHD2, fluorescence polarization assay, 20-min incubation at 30° C.)
O=C(O)CNC(=O)C1=C(O)CCN(Cc2ccc(C(F)(F)F)cc2C(F)(F)F)C1=O [Ex. 1-54]	71	60	
O=C(O)CNC(=O)C1=C(O)C(c2ccccc2)CN(Cc2ccc(-c3ccccc3)cc2)C1=O (centres unmarked) [Ex. 1-57]	83	58	
O=C(O)CNC(=O)C1=C(O)CCN(Cc2cc(C(F)(F)F)cc(C(F)(F)F)c2)C1=O [Ex. 1-59]	54	41	
O=C(O)CNC(=O)C1=C(O)CC2(CCCCC2)N(Cc2ccc(C(F)(F)F)cc2)C1=O [Ex. 1-63]	69	43	
O=C(O)CNC(=O)C1=C(O)C2(CCOCC2)CN(Cc2ccc(C(F)(F)F)cc2)C1=O [Ex. 1-64]	81	80	
O=C(O)CNC(=O)C1=C(O)CC(Cc2ccccc2)N(Cc2ccc(-c3ccccc3)cc2)C1=O (centres unmarked) [Ex. 1-75]	84	54	
O=C(O)CNC(=O)C1=C(O)CC(CCc2ccccc2)N(Cc2ccc(-c3ccccc3)cc2)C1=O (centres unmarked) [Ex. 1-76]	79	40	
CC1CC(O)=C(C(=O)NCC(=O)O)C(=O)N1Cc1ccc(-c2ccccn2)cc1 (centres unmarked) [Ex. 1-77]	85	74	
CC1CC(O)=C(C(=O)NCC(=O)O)C(=O)N1Cc1ccc(C(F)(F)F)cc1 (centres unmarked) [Ex. 1-78]	78	70	
Cc1ccc(CN2C(=O)C(C(=O)NCC(=O)O)=C(O)CC2C)cc1 (centres unmarked) [Ex. 1-79]	71	64	
CC1CC(O)=C(C(=O)NCC(=O)O)C(=O)N1CC1CCC(c2ccccc2)CC1 (centres unmarked) [Ex. 1-80]	88	76	
O=C(O)CNC(=O)C1=C(O)CC(C(F)(F)F)N(Cc2ccc(-c3ccccc3)cc2)C1=O (centres unmarked) [Ex. 1-81]	64	72	
O=C(O)CNC(=O)C1=C(O)C2(CCCCC2)CN(Cc2ccc(C(F)(F)F)cc2)C1=O [Ex. 1-82]	77	51	
O=C(O)CNC(=O)C1=C(O)C2(CCC2)CN(Cc2ccc(C(F)(F)F)cc2)C1=O [Ex. 1-83]	73	54	

More lines, now with the values ahead:

inhibition at 1 µM (human PHD2 [1]) [%]	inhibition at 1 µM (human PHD2 [2]) [%]	pIC50 (human PHD2 [1]; human PHD2, fluorescence polarization assay, 20-min incubation at 30° C.)	Structure (SMILES)
79	75		CC(C)(C)c1ccc(CN2CCC(O)=C(C(=O)NCC(=O)O)C2=O)cc1 [Ex. 1-55]
76	66		Cc1ccc(CN2CCC(O)=C(C(=O)NCC(=O)O)C2=O)c(C)c1 [Ex. 1-60]
71	58		COc1cccc(CN2CCC(O)=C(C(=O)NCC(=O)O)C2=O)c1 [Ex. 1-61]
68	65		COc1ccc(CN2CCC(O)=C(C(=O)NCC(=O)O)C2=O)c(C)c1 [Ex. 1-62]
85	84		CSc1ccc(CN2CCC(O)=C(C(=O)NCC(=O)O)C2=O)cc1 [Ex. 1-65]
77	80		O=C(O)CNC(=O)C1=C(O)CCN(Cc2cccc(Cl)c2)C1=O [Ex. 1-66]
89	84		O=C(O)CNC(=O)C1=C(O)CCN(Cc2ccc(Cl)c(Cl)c2)C1=O [Ex. 1-67]
66	67		O=C(O)CNC(=O)C1=C(O)CCN(Cc2cccc(OC(F)(F)F)c2)C1=O [Ex. 1-68]
85	81		CCOc1ccc(CN2CCC(O)=C(C(=O)NCC(=O)O)C2=O)cc1 [Ex. 1-71]
89	98	7.03	O=C(O)CNC(=O)C1=C(O)CCN(Cc2ccc(Oc3ccccc3)nc2)C1=O [Ex. 1-72]
90	99		O=C(O)CNC(=O)C1=C(O)CCN(Cc2ccc(-c3ccccc3)nc2)C1=O [Ex. 1-73]
86	80		O=C(O)CNC(=O)C1=C(O)CCN(Cc2ccc(Cl)c(C(F)(F)F)c2)C1=O [Ex. 1-74]

Reference: US9422240B2, “Partially saturated nitrogen-containing heterocyclic compound” (TAISHO PHARMACEUTICAL CO., LTD, priority 2012, dated 2016)
